Entries after “also recorded” stand apart in the source; their conditions may differ.
Assays:
Format in all cases: cell-based, human
[1] = test system: CES1 expression in EFEMP1^WT iRPE cells; experiment: Western blot of CES1 expression in normal (EFEMP1^WT) iRPE cells after treatment with agonists and antagonists; settings: EFEMP1^WT iRPE cells from healthy donor, 72 h treatment, vs untreated control; LY294002 10 μM, GW4064 5 μM, GW3965 3 μM
Protocol: (§1) Immunoblot To verify the differentiation of iRPE, CRALBP (Ab15051, Abcam) and RPE65 (401.8B11.3D9, Novas Biologicals) antibodies were used to detect mature RPE markers including CRALBP and RPE65 in iRPE cell lysates via western blot. To determine EFEMP1 expression in iRPE, both cell lysates and culture supernatant were assayed using anti-EFEMP1 antibody (MA5-25740, Thermo Fisher Scientific). To detect CES1 expression in iRPE, anti-CES1 antibody (AF4920, R&D) was used. Anti-alpha tubulin (T5168, Sigma Aldrich), anti-beta actin (A5316, Sigma), or anti-GAPDH (5174, Cell Signaling) antibodies were used to detect house-keeping proteins. The cell lysates were collected using RIPA buffer (Thermo Fisher Scientific).
To understand the upstream regulators of CES1 expression, the iRPE cells from healthy donor were treated with Gefitnib ([…], Sigma Aldrich), ML385 ([…], Sigma Aldrich), LY294002 (10 μM, Sigma Aldrich), GW4064 (5 μM, Sigma Aldrich), or GW3965 (3 μM, Sigma Aldrich) for 72 h. Anti-CES1 (AF4920, R&D) and anti-alpha tubulin (T5168, Sigma Aldrich) antibodies were used to detect CES1 and tubulin expression, respectively. The signal was detected using Immobilon Western Chemiluminescent HRP Substrate (Millipore). The blot was quantified using ImageJ for signal intensity.

iRPE cells [2] = experiment: Nile red staining and quantification of intracellular lipid droplets in iRPE cells; design: amount of lipid droplets: dose or concentration left out as unconfirmed; settings: EFEMP1^R345W iRPE, 2 weeks, vs untreated
Protocol: Nile red staining To stain the intracellular neutral lipid, the iRPE cell cultures were treated with […] Nile red (Sigma Aldrich) for 30 min at 37° C. The cells were washed with PBS three times before microscopy observation.
Since mature iRPE culture is usually 100% confluent, the Nile red-positively stained lipid droplets were quantified using ImageJ in a fixed area of 90,000 square micrometers for the number and size of Nile red-positive signals. Fluorescent particles smaller than 0.0001 square micrometers was excluded as noise.
(§2) Lentiviral transduction For the knockdown of CES1 (MIM: 114835) in iRPE cells, the iRPE cells from healthy donor were cultured in 6-well plate. The lentiviral particles carrying CES1 shRNA (Locus ID 1066, Origene) were transduced into the iRPE cells at a MOI of 10 overnight. To establish fair comparison, the control iRPE cells were transduced with viral particles expressing scramble shRNA. The medium was refreshed the following day, and the cell were incubated for 7 days before analysis. To achieve overexpression of CES1 in iRPE cells, lentiviral particles (Origene) expressing CMV promoter-driven CES1 (GenBank: NM_001025194) were transduced following the same procedure.

[3] = test system: CES1 expression in EFEMP1^R345W iRPE cells; experiment: Western blot of CES1 expression in EFEMP1^R345W iRPE cells treated with EGF; settings: 100 nM EGF, 72 h incubation, vs untreated cells
Protocol: as §1

iRPE cells [4] = experiment: Cholesterol efflux assay in iRPE cells; design: dose or concentration left out as unconfirmed; settings: EFEMP1^R345W iRPE
Protocol: Cholesterol efflux assay Cholesterol Efflux Assay Kit (Abcam) was used to determine the cholesterol efflux rate in iRPE according to the manufacturer's protocol. In brief, fluorescence-labeled cholesterol was added to iRPE culture and incubated overnight. On the next day, the cells were washed twice with PBS, and the efflux of cholesterol was induced by 2% human serum. At designated time points, the culture supernatant and cell lysate were collected and measured by fluorescence at Ex/Em: 482/515 nm. The percentage of cholesterol efflux was calculated by fluorescence intensity of media fluorescence/(fluorescence intensity of cell lysate+media)×100.
as §2

O=C(O)Cc1cccc(OCCCN(Cc2cccc(C(F)(F)F)c2Cl)CC(c2ccccc2)c2ccccc2)c1 [GW3965]
CES1 expression level (western blot) [1]: no change in CES1 expression

CC(C)c1onc(-c2c(Cl)cccc2Cl)c1COc1ccc(/C=C/c2cccc(C(=O)O)c2)c(Cl)c1 [GW4064]
CES1 expression level (western blot) [1]: no change in CES1 expression

Cc1ccccc1C(=O)N1CCc2cc(-c3nc(NC(=O)Cc4ccc5c(c4)OCO5)sc3C)ccc21 [ML385]
CES1 expression level (western blot) [1]: only LY294002 reduced CES1 expression

COc1cc2ncnc(Nc3ccc(F)c(Cl)c3)c2cc1OCCCN1CCOCC1 [gefitinib]
CES1 expression level (western blot) [1]: remarkably reduced

epidermal growth factor [EGF]
lipid droplet size (iRPE cells [2]; 100 mM EGF): not obvious
amount of lipid droplets (iRPE cells [2]; EGF): significant decrease; also recorded: ameliorates intracellular lipid droplet accumulation
CES1 level (western blot) [3]: remarkably higher
cholesterol efflux (in words) (iRPE cells [4]; EGF for two weeks, vs untreated): improve cholesterol efflux
increase in cholesterol efflux (iRPE cells [4]; EGF, 2 weeks, vs untreated control): 26%
